Assay results as given in ChEMBL document CHEMBL4017480, “Discovery and optimization of selective FGFR4 inhibitors via scaffold hopping” (Bioorg Med Chem Lett, 2017).

Columns and labels:
[1] = target: T1, Tyrosine-protein kinase ITK/TSK (Homo sapiens) (UniProt Q08881); test: Inhibition of human ITK at 10 uM using myelin basic protein as substrate measured after 120 mins in presence of [gamma33P]ATP by P81 ion exchange chromatographic method relative to control
T1 sequence (whole entry): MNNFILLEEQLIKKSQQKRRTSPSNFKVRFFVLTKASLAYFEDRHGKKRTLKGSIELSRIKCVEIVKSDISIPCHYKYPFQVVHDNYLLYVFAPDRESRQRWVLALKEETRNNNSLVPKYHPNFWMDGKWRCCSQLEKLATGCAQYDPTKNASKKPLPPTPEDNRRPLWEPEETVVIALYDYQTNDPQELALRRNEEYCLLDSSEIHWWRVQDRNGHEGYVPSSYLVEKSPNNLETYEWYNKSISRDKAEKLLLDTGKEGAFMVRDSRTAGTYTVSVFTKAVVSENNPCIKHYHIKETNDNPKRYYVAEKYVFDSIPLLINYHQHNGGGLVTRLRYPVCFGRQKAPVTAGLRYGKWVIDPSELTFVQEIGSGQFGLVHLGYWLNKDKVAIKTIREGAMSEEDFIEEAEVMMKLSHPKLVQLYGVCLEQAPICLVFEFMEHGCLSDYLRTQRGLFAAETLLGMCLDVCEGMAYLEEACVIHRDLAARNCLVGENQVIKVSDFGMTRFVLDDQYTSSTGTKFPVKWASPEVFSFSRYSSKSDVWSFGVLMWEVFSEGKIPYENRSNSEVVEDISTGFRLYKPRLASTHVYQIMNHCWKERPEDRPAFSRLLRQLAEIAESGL

Cytochrome P450 2C19 = Cytochrome P450 2C19 (Homo sapiens, UniProt P33261); test: Inhibition of CYP2C19 in human liver microsomes using S-mephenytoin as substrate pretreated for 10 mins followed by substrate addition measured after 10 mins in presence of NADPH by LC-MS/MS method; type: ADME
[2] = target: T2, Tyrosine-protein kinase ITK/TSK (Homo sapiens, UniProt Q08881); test: Inhibition of human ITK using myelin basic protein as substrate measured after 120 mins in presence of [gamma33P]ATP by P81 ion exchange chromatographic method
T2 sequence (Q08881 whole entry): T1 sequence (whole entry)

[3] = target: T3, Tyrosine-protein kinase Tec (Homo sapiens, UniProt P42680); test: Inhibition of human TEC using poly[Glu:Tyr] (4:1) as substrate measured after 120 mins in presence of [gamma33P]ATP by P81 ion exchange chromatographic method
T3 sequence (P42680 whole entry): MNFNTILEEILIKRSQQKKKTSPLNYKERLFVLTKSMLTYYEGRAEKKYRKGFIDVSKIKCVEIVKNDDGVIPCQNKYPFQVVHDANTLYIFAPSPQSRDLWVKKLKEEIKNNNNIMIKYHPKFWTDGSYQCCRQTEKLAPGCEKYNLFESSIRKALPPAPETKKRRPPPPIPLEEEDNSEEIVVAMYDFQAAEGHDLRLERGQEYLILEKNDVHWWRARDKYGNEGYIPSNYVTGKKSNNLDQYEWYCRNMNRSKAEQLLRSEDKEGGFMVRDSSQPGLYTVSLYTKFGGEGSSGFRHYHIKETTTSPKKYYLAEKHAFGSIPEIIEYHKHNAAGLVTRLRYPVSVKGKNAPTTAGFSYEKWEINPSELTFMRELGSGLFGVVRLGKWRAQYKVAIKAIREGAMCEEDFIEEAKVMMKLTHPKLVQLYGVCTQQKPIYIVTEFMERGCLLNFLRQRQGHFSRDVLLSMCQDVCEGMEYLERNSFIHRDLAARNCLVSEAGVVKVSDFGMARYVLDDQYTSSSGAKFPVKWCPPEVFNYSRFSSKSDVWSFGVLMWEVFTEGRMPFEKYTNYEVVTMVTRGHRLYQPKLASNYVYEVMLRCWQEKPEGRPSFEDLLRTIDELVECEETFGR

[4] = target: Vascular endothelial growth factor receptor 2 (Homo sapiens, UniProt P35968); test: Inhibition of human VEGFR2 using poly[Glu:Tyr] (4:1) as substrate measured after 120 mins in presence of [gamma33P]ATP by P81 ion exchange chromatographic method
Cytochrome P450 2C9 = Cytochrome P450 2C9 (Homo sapiens, UniProt P11712); test: Inhibition of CYP2C9 in human liver microsomes using diclofenac as substrate pretreated for 10 mins followed by substrate addition measured after 10 mins in presence of NADPH by LC-MS/MS method; type: ADME
[5] = Intrinsic clearance in human liver microsomes at 1 uM measured after 60 mins in presence of NADPH by LC-MS/MS analysis; type: ADME, microsome; details: read-out: CLH
[6] = target: Tyrosine-protein kinase BTK (Homo sapiens, UniProt Q06187); test: Inhibition of human BTK at 10 uM using KVEKIGEGTYGVVYK as substrate measured after 120 mins in presence of [gamma33P]ATP by P81 ion exchange chromatographic method relative to control
[7] = Apparent permeability from apical to basolateral side in MDCK2-MDR1 cells at 2 uM after 2.5 hrs LC-MS/MS analysis; type: ADME, cell-based, Canis lupus familiaris; details: dog, MDCK-MDR1
Cytochrome P450 1A2 = target: T4, Cytochrome P450 1A2 (Homo sapiens, UniProt P05177); test: Inhibition of CYP1A2 in human liver microsomes using phenacetin as substrate pretreated for 10 mins followed by substrate addition measured after 10 mins in presence of NADPH by LC-MS/MS method; type: ADME
T4 sequence (P05177 whole entry): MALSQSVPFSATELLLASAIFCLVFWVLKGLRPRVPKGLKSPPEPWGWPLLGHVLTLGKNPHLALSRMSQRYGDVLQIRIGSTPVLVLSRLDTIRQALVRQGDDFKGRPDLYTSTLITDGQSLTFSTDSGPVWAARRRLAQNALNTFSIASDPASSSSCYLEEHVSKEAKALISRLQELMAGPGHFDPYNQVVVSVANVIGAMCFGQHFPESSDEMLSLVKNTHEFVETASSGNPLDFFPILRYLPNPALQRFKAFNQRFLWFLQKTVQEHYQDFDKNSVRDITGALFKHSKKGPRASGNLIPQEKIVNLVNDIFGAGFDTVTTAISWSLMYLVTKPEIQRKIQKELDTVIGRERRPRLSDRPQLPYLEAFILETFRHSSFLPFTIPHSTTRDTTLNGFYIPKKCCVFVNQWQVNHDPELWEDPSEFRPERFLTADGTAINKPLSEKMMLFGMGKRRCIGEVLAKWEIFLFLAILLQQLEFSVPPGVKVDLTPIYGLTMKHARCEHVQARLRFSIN

[8] = Stability in mouse plasma assessed as compound remaining at 2 uM measured after 2 hrs by LC-MS/MS analysis; type: ADME, cell-free; details: read-out: Stability
[9] = target: Macrophage colony-stimulating factor 1 receptor (Homo sapiens, UniProt P07333); test: Inhibition of human FMS using poly[Glu:Tyr] (4:1) as substrate measured after 120 mins in presence of [gamma33P]ATP by P81 ion exchange chromatographic method
[10] = Intrinsic clearance in mouse liver microsomes at 1 uM measured after 60 mins in presence of NADPH by LC-MS/MS analysis; type: ADME, microsome; details: read-out: CLH

Sequence of Tyrosine-protein kinase BTK (Q06187 whole entry): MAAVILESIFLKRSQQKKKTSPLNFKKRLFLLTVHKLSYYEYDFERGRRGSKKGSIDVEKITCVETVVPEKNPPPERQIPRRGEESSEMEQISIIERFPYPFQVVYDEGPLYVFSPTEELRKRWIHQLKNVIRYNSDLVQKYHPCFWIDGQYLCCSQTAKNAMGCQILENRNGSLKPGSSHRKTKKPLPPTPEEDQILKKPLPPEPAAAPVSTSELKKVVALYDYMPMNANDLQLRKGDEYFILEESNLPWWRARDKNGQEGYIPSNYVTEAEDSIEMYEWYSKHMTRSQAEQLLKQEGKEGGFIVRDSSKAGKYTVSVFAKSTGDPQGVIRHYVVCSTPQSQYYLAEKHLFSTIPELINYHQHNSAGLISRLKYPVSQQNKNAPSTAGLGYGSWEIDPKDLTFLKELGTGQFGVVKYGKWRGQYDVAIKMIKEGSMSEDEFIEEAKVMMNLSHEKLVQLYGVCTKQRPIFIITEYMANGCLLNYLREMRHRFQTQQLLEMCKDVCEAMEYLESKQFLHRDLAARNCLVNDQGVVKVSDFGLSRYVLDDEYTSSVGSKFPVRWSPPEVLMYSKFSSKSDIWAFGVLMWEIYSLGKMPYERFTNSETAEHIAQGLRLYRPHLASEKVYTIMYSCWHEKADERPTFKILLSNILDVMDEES
Sequence of Macrophage colony-stimulating factor 1 receptor (P07333 whole entry): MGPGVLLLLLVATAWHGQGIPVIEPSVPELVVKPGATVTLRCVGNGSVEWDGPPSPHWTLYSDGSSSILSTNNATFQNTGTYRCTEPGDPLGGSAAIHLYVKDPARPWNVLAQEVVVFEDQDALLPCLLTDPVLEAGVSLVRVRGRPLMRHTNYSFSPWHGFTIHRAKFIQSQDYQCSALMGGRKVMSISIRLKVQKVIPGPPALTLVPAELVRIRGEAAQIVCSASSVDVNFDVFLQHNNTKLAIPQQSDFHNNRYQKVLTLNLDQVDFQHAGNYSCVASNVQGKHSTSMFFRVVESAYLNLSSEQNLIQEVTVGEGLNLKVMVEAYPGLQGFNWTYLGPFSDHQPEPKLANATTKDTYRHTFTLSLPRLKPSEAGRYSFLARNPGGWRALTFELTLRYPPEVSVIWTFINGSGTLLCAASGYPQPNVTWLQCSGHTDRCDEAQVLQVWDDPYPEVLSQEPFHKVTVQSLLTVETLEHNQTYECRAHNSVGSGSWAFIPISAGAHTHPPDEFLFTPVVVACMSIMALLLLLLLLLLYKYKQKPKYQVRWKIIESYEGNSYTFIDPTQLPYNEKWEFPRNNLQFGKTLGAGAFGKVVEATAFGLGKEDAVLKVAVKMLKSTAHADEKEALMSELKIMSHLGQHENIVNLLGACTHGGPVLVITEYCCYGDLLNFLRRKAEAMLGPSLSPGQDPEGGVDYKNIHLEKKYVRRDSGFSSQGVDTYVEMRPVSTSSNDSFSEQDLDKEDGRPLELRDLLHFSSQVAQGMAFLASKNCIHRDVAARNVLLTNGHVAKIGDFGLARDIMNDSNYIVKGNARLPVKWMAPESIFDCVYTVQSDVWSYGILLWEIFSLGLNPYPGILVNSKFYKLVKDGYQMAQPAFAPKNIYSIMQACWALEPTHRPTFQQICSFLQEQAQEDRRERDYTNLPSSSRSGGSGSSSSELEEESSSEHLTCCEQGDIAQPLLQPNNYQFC
Sequence of Vascular endothelial growth factor receptor 2 (P35968 whole entry): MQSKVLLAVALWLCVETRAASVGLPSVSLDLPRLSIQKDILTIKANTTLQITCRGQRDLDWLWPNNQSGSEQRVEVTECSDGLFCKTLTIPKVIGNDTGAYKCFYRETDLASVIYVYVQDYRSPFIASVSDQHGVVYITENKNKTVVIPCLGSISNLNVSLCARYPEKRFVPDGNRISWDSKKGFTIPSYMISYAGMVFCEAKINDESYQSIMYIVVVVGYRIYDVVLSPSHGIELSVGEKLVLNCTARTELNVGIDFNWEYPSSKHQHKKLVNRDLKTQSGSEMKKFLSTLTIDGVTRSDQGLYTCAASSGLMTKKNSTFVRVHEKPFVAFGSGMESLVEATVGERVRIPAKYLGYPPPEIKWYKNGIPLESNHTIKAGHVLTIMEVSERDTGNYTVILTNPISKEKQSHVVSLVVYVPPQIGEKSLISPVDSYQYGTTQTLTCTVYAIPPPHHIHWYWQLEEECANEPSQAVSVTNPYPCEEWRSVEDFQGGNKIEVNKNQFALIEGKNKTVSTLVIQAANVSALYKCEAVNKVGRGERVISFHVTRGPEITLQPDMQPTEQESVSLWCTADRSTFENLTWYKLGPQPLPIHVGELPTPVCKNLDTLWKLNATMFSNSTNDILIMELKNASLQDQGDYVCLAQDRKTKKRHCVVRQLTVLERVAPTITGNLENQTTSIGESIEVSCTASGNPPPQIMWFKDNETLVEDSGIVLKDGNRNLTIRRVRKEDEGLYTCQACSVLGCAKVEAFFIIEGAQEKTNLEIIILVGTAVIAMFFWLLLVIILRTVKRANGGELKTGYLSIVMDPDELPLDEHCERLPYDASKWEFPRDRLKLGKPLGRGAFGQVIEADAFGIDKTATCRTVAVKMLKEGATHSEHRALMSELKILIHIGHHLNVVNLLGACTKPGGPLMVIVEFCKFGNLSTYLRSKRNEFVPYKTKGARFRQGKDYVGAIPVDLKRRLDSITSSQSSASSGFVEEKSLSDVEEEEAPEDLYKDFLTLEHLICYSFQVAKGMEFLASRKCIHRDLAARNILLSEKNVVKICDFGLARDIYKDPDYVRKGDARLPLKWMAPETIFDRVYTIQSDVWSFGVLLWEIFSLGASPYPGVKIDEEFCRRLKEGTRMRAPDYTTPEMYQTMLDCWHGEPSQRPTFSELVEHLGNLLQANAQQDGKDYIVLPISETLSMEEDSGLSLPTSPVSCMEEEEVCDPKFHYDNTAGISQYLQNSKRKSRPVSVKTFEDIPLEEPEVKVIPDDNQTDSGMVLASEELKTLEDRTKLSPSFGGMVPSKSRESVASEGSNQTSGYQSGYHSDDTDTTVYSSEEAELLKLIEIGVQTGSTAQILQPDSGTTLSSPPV
Sequence of Cytochrome P450 2C9 (P11712 whole entry): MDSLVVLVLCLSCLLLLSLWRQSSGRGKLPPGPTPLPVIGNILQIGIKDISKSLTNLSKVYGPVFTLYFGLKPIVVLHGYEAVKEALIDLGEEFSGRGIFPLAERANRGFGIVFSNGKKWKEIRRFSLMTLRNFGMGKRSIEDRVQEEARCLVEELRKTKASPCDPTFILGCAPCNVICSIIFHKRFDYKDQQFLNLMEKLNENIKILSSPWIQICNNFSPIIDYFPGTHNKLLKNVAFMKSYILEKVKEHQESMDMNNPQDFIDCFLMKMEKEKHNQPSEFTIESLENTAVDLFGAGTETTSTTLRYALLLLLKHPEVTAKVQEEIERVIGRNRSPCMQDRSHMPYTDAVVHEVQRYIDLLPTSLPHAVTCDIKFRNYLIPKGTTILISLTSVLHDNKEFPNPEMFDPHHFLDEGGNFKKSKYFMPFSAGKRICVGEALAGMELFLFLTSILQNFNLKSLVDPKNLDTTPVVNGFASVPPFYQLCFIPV
Sequence of Cytochrome P450 2C19 (P33261 whole entry): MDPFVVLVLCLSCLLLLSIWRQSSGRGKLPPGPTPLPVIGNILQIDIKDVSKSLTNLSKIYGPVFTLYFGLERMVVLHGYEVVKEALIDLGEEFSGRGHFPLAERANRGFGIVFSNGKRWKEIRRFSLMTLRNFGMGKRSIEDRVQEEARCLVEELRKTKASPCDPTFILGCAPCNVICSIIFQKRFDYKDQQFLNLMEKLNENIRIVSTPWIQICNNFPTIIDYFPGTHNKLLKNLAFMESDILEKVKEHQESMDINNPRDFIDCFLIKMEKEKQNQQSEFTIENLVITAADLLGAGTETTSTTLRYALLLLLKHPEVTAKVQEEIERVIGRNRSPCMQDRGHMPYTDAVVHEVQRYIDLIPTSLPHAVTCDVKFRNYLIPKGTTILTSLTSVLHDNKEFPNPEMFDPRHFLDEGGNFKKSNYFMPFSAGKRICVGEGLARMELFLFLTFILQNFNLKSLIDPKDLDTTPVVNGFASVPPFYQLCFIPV

Row | inhibition [1] [%] | IC50 (Cytochrome P450 2C19) [µM] | IC50 [2] [µM] | IC50 [3] [µM] | IC50 [4] [µM] | IC50 (Cytochrome P450 2C9) [µM] | CLint scaled at 1 µM [5] [mL/min/kg] | inhibition [6] [%] | Papp A→B at 2.5 h, 2 µM [7] [×10⁻⁶ cm/s] | IC50 (Cytochrome P450 1A2) [µM] | remaining at 2 h, 2 µM [8] [%] | IC50 [9] [µM] | CLint scaled at 1 µM [10] [mL/min/kg] | SMILES
1 | 0 | 19.8 | > 10 | > 10 | > 10 | 29.1 | 18 | 14 | 7.3 | > 50 | 97 | > 10 | 474 | C=CC(=O)N[C@H]1COC[C@H]1Nc1ncc(OCc2c(F)c(OC)cc(OC)c2F)cn1
2 | 9 | 1.5 | > 10 | > 10 | > 10 | 3.7 | 165 | 7 | 8.6 | > 50 | 13 | > 10 | 9640 | C=CC(=O)Nc1cccc(C)c1Nc1ncc(OCc2c(F)c(OC)cc(OC)c2F)cn1
3 | 16 | 1.7 | > 10 | > 10 | > 10 | 0.9 | 41 | -7 | 0.35 | 15.9 | 63 | 1.1 | 97 | C=CC(=O)Nc1cccc(C)c1Nc1ncc2cc(-c3c(Cl)c(OC)cc(OC)c3Cl)ccc2n1
